Common to all, as to assay: NCI-60 cell line screen, 48 h
Experiment [1] relates to SK-MEL-2 melanoma.
Experiment [2] relates to M14 melanoma.
In experiment [3] the test system is K-562 leukemia.
In experiment [4] the test system is A498 renal.
In experiment [5] the test system is UO-31 renal.
In experiment [6] the test system is SNB-75 CNS.
Experiment [7] has as its system SNB-19 CNS.
In experiment [8] the test system is SN12C renal.
The subject of experiment [9] is NCI/ADR-RES ovarian.

The structures appear in SMILES notation.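 Test compounds were applied to cells in 96-well plates for 48 hours at 5 doses. GI50 marks 50% less growth. TGI is the concentration that stops growth completely.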 Bounds are passed on as bounds.

As to `C/C(CC(=O)Nc1cc(Cl)c(Cl)cc1Cl)=N\NS(=O)(=O)c1ccc(C)cc1`, the TGI in [1] was 86.8 µM; in experiment [2], 91.4 µM; in [3], > 100 µM; in experiment [4] it was > 100 µM; in experiment [5], 52.3 µM; in experiment [6], > 100 µM.
Consider `O=C1/C(=C/c2ccc(Cl)cc2)COc2ccc(Br)cc21`, for which the TGI in [1], in experiment [3], in experiment [4], in [5] and in [6] was > 100 µM each time.
As for `COc1ccccc1NC(=O)NS(=O)(=O)c1ccccc1`, the TGI in [1], in experiment [2], in experiment [7], in experiment [8], in experiment [5] and in experiment [6] was > 100 µM in each case.
On to `CCC1C(=O)OCc2c1cc1n(c2=O)Cc2ccccc2-1` (configuration not stated), for which the TGI in [1], in experiment [2], in [7], in experiment [3], in [4] and in [8] was > 100 µM throughout. The TGI in [5] and in [6] was > 100 µM in each case.
With `Cc1cccc2c1C(=O)OC2(c1cccc2ccccc12)c1cccc2ccccc12`, the TGI in [1], in experiment [2], in [7], in [3], in experiment [4] and in experiment [8] was > 100 µM in each case. In addition, the TGI in experiment [5] and in experiment [6] was > 100 µM throughout.
With `CC(C(=O)C(C)O[Si](c1ccccc1)(c1ccccc1)C(C)(C)C)=P(c1ccccc1)(c1ccccc1)c1ccccc1` (configuration not stated), the TGI in experiment [1] worked out at 7.64 µM; in [2], 14.7 µM; in experiment [7], 14.5 µM; in experiment [3], 12.3 µM; in experiment [4] it was 16.1 µM; in experiment [8] it was 13.5 µM. The values for the TGI in experiment [5] and in [6] were 17.2 µM and 8.11 µM, respectively.
As for `O=C1/C(=C/c2ccccc2)CN(C(=O)Oc2ccccc2)C/C1=C\c1ccccc1`, the TGI was 65.5 µM in [1]; > 100 µM in experiment [2]; 40.9 µM in experiment [7]; 22.1 µM in experiment [3]; > 100 µM in experiment [4]; > 100 µM in experiment [8]. Moreover, the TGI in [5] amounted to 88.9 µM; in experiment [6], 17.5 µM.
`CCCN(CCC)c1c([N+](=O)[O-])cc(C(N)=O)cc1[N+](=O)[O-]`: the TGI in [1], in experiment [2], in experiment [3], in experiment [8], in experiment [5] and in experiment [6] was > 100 µM each time.
Take `COc1cccc(C2N3CCCCC3[C@@H]3c4[nH]c5ccccc5c4CCN23)c1OC` (some centres not stated): the TGI in experiment [1] was 29.2 µM; in experiment [2], 29.6 µM; in [7] it was 24.3 µM; in experiment [3], 30.1 µM; in [4], 23.8 µM; in [8] it was 31 µM. Further, the TGI in [5] is 28.1 µM.
With `CCC[CH2][Sn]1([CH2]CCC)[O]N=Cc2ccccc2[O]1`, the GI50 in experiment [1] was 0.317 µM; in [2], 0.78 µM; in experiment [7], 1.09 µM; in experiment [3], 0.192 µM; in experiment [4], 1.43 µM; in experiment [8], 1.27 µM. In addition, the GI50 is 1.33 µM in experiment [5] and 0.359 µM in experiment [6]. Besides, the TGI in [1] came to 1.07 µM; in experiment [2] it was 2.09 µM; in [7], 2.33 µM; in experiment [3] it was 1.33 µM; in [4], 2.8 µM; in experiment [8], 2.54 µM. In addition, the TGI in [5] was found to be 2.61 µM; in [6], 1.54 µM.
Turning to `N#CC(N)(C(=O)C(=O)NCCCNC(=O)C(=O)C(N)(C#N)c1ccc(Cl)cc1)c1ccc(Cl)cc1` (configuration not stated), the TGI in experiment [1], in experiment [2], in [7], in experiment [3], in [4] and in experiment [8] was > 100 µM throughout. Further, the TGI in experiment [5] and in experiment [6] was > 100 µM each time.
On to `CC(C)=CCCC1(C)C=Cc2c(ccc3c2[nH]c2cc(O)c(C)cc23)O1` (configuration not stated), for which the GI50 in experiment [1] is 6.47 µM; in [2], 3.92 µM; in experiment [7] it was > 25 µM; in [3] it was 5.64 µM; in experiment [8], 4.63 µM. Also, the TGI in experiment [1] was > 25 µM; in [2], 7.44 µM; in [7] it was > 25 µM; in experiment [3] it was 15.6 µM; in experiment [8], 8.24 µM; in [5] it was > 2.5 µM.
Regarding `COc1ccc2nc(NC(=O)C(=O)C(C#N)c3ccc(CC#N)cc3)sc2c1` (configuration not stated), the TGI in [1], in [2], in [7], in [3], in [4] and in experiment [8] was > 100 µM in each case. Further, the TGI in experiment [5] and in experiment [6] was > 100 µM throughout.
As for `c1ccc2c(Nc3ccc4c(c3)OCO4)c3ccoc3nc2c1`, the GI50 was 26.4 µM in experiment [1]; 14.3 µM in experiment [2]; 7.66 µM in [9]; 26.5 µM in [7]; 3.27 µM in [3]; 14.4 µM in experiment [4]. In addition, the GI50 in experiment [8] was 24.2 µM; in [5], 23.6 µM. Besides, the TGI in [1] was > 100 µM; in experiment [2], 29.8 µM; in [9], 75.5 µM; in experiment [7], 81.3 µM; in experiment [3] it was 27.8 µM; in experiment [4], 29.1 µM. Also, the results for the TGI in [8] and in experiment [5] were 82.1 µM and > 100 µM, respectively.
With `CCc1cc2c(c3[nH]ccc13)[C@@H](C)C[C@H]2C`, the TGI in experiment [2] worked out at 34.4 µM; in experiment [3] it was 45 µM; in [4], 30.2 µM; in experiment [8], 29.8 µM; in experiment [5] it was 32.3 µM; in experiment [6], 38 µM.
